According to ChEMBL document CHEMBL5625215, “Antiproliferative activity of meso-substituted BODIPY photocages: Effect of electrophiles vs singlet oxygen” (Eur J Med Chem, 2023):
The source made the active and inactive calls. The rule behind the calls is not given here.

Key:
NCI-H460 [1] = assay: Induction of cell death in human NCI-H460 cells assessed as shrinkage of nuclear volume preincubated for 30 mins followed by light irradiation for 15 to 30 mins by Hoechst 33342 staining based confocal microscopic analysis; type: functional; conditions: time 45-60 min
MCF7 [2] = assay: Antiproliferative activity against human MCF7 cells assessed as inhibition of cell growth incubated for 72 hrs under photoirradiation with 6 cool white lamps for 15 mins at 4,28 and 52 hrs after compound addition by MTT assay; type: functional, cell-based; conditions: MCF7, light or radiation study
HCT-116 [3] = assay: Antiproliferative activity against human HCT-116 cells assessed as inhibition of cell growth incubated for 72 hrs under dark condition by MTT assay; type: functional, cell-based; conditions: HCT-116, 72 h
[4] = Cytotoxicity against HEK293T cells assessed as inhibition of cell growth incubated for 72 hrs under dark condition by MTT assay; type: toxicity, cell-based, HEK-293T; conditions: human
NCI-H460 [5] = assay: Antiproliferative activity against human NCI-H460 cells assessed as inhibition of cell growth incubated for 72 hrs under dark condition by MTT assay; type: functional, cell-based; conditions: NCI-H460, 72 h
NCI-H460 [6] = assay: Induction of cell death in human NCI-H460 cells assessed as membrane blebbing preincubated for 30 mins followed by light irradiation for 15 to 30 mins by Hoechst 33342 staining based confocal microscopic analysis; type: functional; conditions: time 45-60 min
[7] = Drug localization in nuclear membrane of human NCI-H460 cells incubated for 30 mins by Hoechst 33342 staining based confocal microscopic analysis; type: ADME, cell membranes; conditions: nci-h460, 0.5 h
[8] = Cytotoxicity against human HaCaT cells assessed as inhibition of cell growth incubated for 72 hrs under photoirradiation with 6 cool white lamps for 15 mins at 4,28 and 52 hrs after compound addition by MTT assay; type: toxicity, cell-based
[9] = Absorption property of compound in CH3CN assessed as maximal wavelength by UV-vis spectrophotometer; type: physicochemical
NCI-H460 [10] = assay: Induction of cell death in human NCI-H460 cells assessed as cell shrinkage preincubated for 30 mins followed by light irradiation for 15 to 30 mins by Hoechst 33342 staining based confocal microscopic analysis; type: functional; conditions: time 45-60 min
[11] = Absorption property of compound in CH3CN assessed as maximal molar absorption coefficient by UV-vis spectrophotometer; type: physicochemical
[12] = Fluorescence property of compound in CH3CN assessed as fluorescence quantum yield by spectrofluorometric analysis; type: physicochemical
[13] = Drug localization in endoplasmic reticulum of human NCI-H460 cells incubated for 30 mins by Hoechst 33342 staining based confocal microscopic analysis; type: ADME, subcellular; conditions: nci-h460, 0.5 h
NCI-H460 [14] = assay: Induction of cell death in human NCI-H460 cells assessed as dye bleaching preincubated for 30 mins followed by light irradiation for 15 to 30 mins by Hoechst 33342 staining based confocal microscopic analysis; type: functional; conditions: time 45-60 min
[15] = Induction of singlet oxygen production in CH3CN assessed as decrease in fluorescence intensity at 450 nm under photoirradiation with visible light and measured after 30 sec by DPBF based assay relative to control; type: functional; set-up: scale not given: the % may be the effect or the level left
[16] = Drug localization in cytoplasm of human NCI-H460 cells incubated for 30 mins by Hoechst 33342 staining based confocal microscopic analysis; type: ADME, subcellular; conditions: nci-h460, 0.5 h
[17] = Drug uptake in HEK293T cells by fluorescence microscopic analysis; type: ADME, cell-based; conditions: human, hek-293t
NCI-H460 [18] = assay: Antiproliferative activity against human NCI-H460 cells assessed as inhibition of cell growth incubated for 72 hrs under photoirradiation with 6 cool white lamps for 15 mins at 4,28 and 52 hrs after compound addition by MTT assay; type: functional, cell-based; conditions: NCI-H460, light or radiation study
[19] = Cytotoxicity against HEK293T cells assessed as inhibition of cell growth incubated for 72 hrs under photoirradiation with 6 cool white lamps for 15 mins at 4,28 and 52 hrs after compound addition by MTT assay; type: toxicity, cell-based, HEK-293T; conditions: human
HEK-293T [20] = assay: Induction of apoptosis in HEK293T cells assessed as cell death irradiated with visible light by Hoechst 33342 staining based confocal microscopic analysis; type: toxicity; conditions: human
[21] = Emission property of compound in CH3CN assessed as maximal wavelength by […]; type: physicochemical
MCF7 [22] = assay: Antiproliferative activity against human MCF7 cells assessed as inhibition of cell growth incubated for 72 hrs under dark condition by MTT assay; type: functional, cell-based; conditions: MCF7, 72 h
HCT-116 [23] = assay: Antiproliferative activity against human HCT-116 cells assessed as inhibition of cell growth incubated for 72 hrs under photoirradiation with 6 cool white lamps for 15 mins at 4,28 and 52 hrs after compound addition by MTT assay; type: functional, cell-based; conditions: HCT-116, light or radiation study
[24] = Cytotoxicity against human HaCaT cells assessed as inhibition of cell growth incubated for 72 hrs under dark condition by MTT assay; type: toxicity, cell-based
[25] = Drug localization in lipid droplets of human NCI-H460 cells incubated for 30 mins by Hoechst 33342 staining based confocal microscopic analysis; type: ADME, subcellular, Lipid droplet; conditions: nci-h460, 0.5 h
HEK-293T [26] = assay: Induction of apoptosis in HEK293T cells assessed as dye bleaching irradiated with visible light by Hoechst 33342 staining based confocal microscopic analysis; type: toxicity, cell-based; conditions: human
[27] = Drug localization in golgi body of human NCI-H460 cells incubated for 30 mins by Hoechst 33342 staining based confocal microscopic analysis; type: ADME, subcellular; conditions: nci-h460, 0.5 h
[28] = Induction of singlet oxygen production in CH3CN assessed as decrease in fluorescence intensity at 450 nm under photoirradiation with visible light and measured after 15 sec by DPBF based assay relative to control; type: functional; set-up: scale not given: the % may be the effect or the level left
[29] = Induction of singlet oxygen production in CH3CN assessed as decrease in fluorescence intensity at 450 nm under photoirradiation with visible light and measured after 45 sec by DPBF based assay relative to control; type: functional; set-up: scale not given: the % may be the effect or the level left
[30] = Induction of singlet oxygen production in CH3CN assessed as singlet oxygen quantum yield at 450 nm under photoirradiation with visible light and measured after 15 to 60 sec by DPBF based assay; type: functional; conditions: time 15-60 sec
[31] = Induction of singlet oxygen production in CH3CN assessed as decrease in fluorescence intensity at 455 nm under photoirradiation with visible light and measured after 1 min by DPBF based assay relative to control; type: functional; set-up: scale not given: the % may be the effect or the level left
[32] = Induction of singlet oxygen production in CH3CN assessed as decrease in fluorescence intensity at 455 nm under photoirradiation with visible light and measured after 45 sec by DPBF based assay relative to control; type: functional; set-up: scale not given: the % may be the effect or the level left
[33] = Induction of singlet oxygen production in CH3CN assessed as decrease in fluorescence intensity at 455 nm under photoirradiation with visible light and measured after 30 sec by DPBF based assay relative to control; type: functional; set-up: scale not given: the % may be the effect or the level left
[34] = Induction of singlet oxygen production in CH3CN assessed as decrease in fluorescence intensity at 455 nm under photoirradiation with visible light and measured after 15 sec by DPBF based assay relative to control; type: functional; set-up: scale not given: the % may be the effect or the level left
[35] = Induction of singlet oxygen production in CH3CN assessed as singlet oxygen quantum yield; type: functional
HCT-116 [36] = assay: Induction of ROS generation in human HCT-116 cells assessed as increase in oxidative stress at 5 uM preincubated with compound for 1 hrs followed by photoirradiation with 6 cool white lamps by DCFH-DA staining based fluorescence analysis; type: functional, cell-based
[37] = Drug localization in endoplasmic reticulum of human NCI-H460 cells at 10 uM incubated for 30 mins by Hoechst 33342 staining based confocal microscopic analysis; type: ADME, subcellular; conditions: nci-h460, 0.5 h
[38] = Drug localization in nuclear membrane of human NCI-H460 cells at 10 uM incubated for 30 mins by Hoechst 33342 staining based confocal microscopic analysis; type: ADME, cell membranes; conditions: nci-h460, 0.5 h
HCT-116 [39] = assay: Induction of ROS generation in human HCT-116 cells at 5 uM incubated for 1 hrs under dark condition by DCFH-DA staining based fluorescence analysis; type: functional, cell-based
NCI-H460 [40] = assay: Induction of cell death in human NCI-H460 cells assessed as cell shrinkage at 1 uM preincubated for 30 mins followed by light irradiation for 15 to 30 mins by Hoechst 33342 staining based confocal microscopic analysis; type: functional; conditions: time 45-60 min
[41] = Drug localization in cytoplasm of human NCI-H460 cells at 10 uM incubated for 30 mins by Hoechst 33342 staining based confocal microscopic analysis; type: ADME, subcellular; conditions: nci-h460, 0.5 h
NCI-H460 [42] = assay: Induction of cell death in human NCI-H460 cells assessed as dye bleaching at 1 uM preincubated for 30 mins followed by light irradiation for 15 to 30 mins by Hoechst 33342 staining based confocal microscopic analysis; type: functional; conditions: time 45-60 min
NCI-H460 [43] = assay: Induction of cell death in human NCI-H460 cells assessed as membrane blebbing at 1 uM preincubated for 30 mins followed by light irradiation for 15 to 30 mins by Hoechst 33342 staining based confocal microscopic analysis; type: functional; conditions: time 45-60 min
[44] = Drug localization in golgi body of human NCI-H460 cells at 10 uM incubated for 30 mins by Hoechst 33342 staining based confocal microscopic analysis; type: ADME, subcellular; conditions: nci-h460, 0.5 h
NCI-H460 [45] = assay: Induction of cell death in human NCI-H460 cells assessed as shrinkage of nuclear volume at 1 uM preincubated for 30 mins followed by light irradiation for 15 to 30 mins by Hoechst 33342 staining based confocal microscopic analysis; type: functional; conditions: time 45-60 min
[46] = Drug localization in lipid droplets of human NCI-H460 cells at 10 uM incubated for 30 mins by Hoechst 33342 staining based confocal microscopic analysis; type: ADME, subcellular, Lipid droplet; conditions: nci-h460, 0.5 h
[47] = Fluorescence property of compound in CH3OH assessed as fluorescence quantum yield; type: physicochemical

Compound	IC50 (MCF7 [2])	IC50 (HCT-116 [3])	IC50 (NCI-H460 [5])	Drug uptake [7]	Activity [9]	Activity [11]	Activity [12]	Drug uptake [13]	Drug uptake [17]	IC50 (NCI-H460 [18])	Activity [21]	IC50 (MCF7 [22])	IC50 (HCT-116 [23])	Activity (NCI-H460 [1])	IC50 at 72 h [4]	Activity (NCI-H460 [6])	IC50 at 72 h [8]	Activity (NCI-H460 [10])	Activity (HEK-293T [20])	Activity (HEK-293T [26])	other results
C1=Cc2nc1c(-c1ccccc1)c1ccc([nH]1)c(-c1ccccc1)c1nc(c(-c3ccccc3)c3ccc([nH]3)c2-c2ccccc2)C=C1	–	–	–	–	–	–	–	–	–	–	–	–	–	–	–	–	–	–	–	–	Activity [31]: 95.1%; Activity [32]: 84.2%; Activity [33]: 63%; Activity [34]: 43.3%; Activity [35]: 0.5
CC1=CC(C)=[N+]2C1=C(CO)c1c(C)cc(C)n1[B-]2(C)C	150 nM	> 100000 nM	> 100000 nM	–	505 nm	88894 M⁻¹ cm⁻¹	0.32	–	Active	170 nM	517 nm	> 100000 nM	170 nM	–	38000 nM	–	300 nM	–	Toxic	Toxic	Activity (HCT-116 [36]): Active; Drug uptake [37]: Active; Drug uptake [38]: Active; Activity (HCT-116 [39]): inactive; Activity (NCI-H460 [40]): Active; Drug uptake [41]: Active; Activity (NCI-H460 [42]): Active; Activity (NCI-H460 [43]): Active; Drug uptake [44]: Active; IC50 at 72 h [19]: 300 nM; IC50 at 72 h [24]: 68000 nM; Activity (NCI-H460 [45]): Active; Drug uptake [46]: Active
CCN(CC)c1ccc2c(-c3ccccc3C(=O)O)c3ccc(=[N+](CC)CC)cc-3oc2c1.[Cl-] [RHODAMINE]	–	–	–	–	–	–	–	–	–	–	–	–	–	–	–	–	–	–	–	–	Activity [47]: 0.66

Now from value to molecule, other results behind:

IC50 (MCF7 [2])	IC50 (HCT-116 [3])	IC50 (NCI-H460 [5])	Drug uptake [7]	Activity [9]	Activity [11]	Activity [12]	Drug uptake [13]	Drug uptake [17]	IC50 (NCI-H460 [18])	Activity [21]	IC50 (MCF7 [22])	IC50 (HCT-116 [23])	Compound	Activity (NCI-H460 [1])	IC50 at 72 h [4]	Activity (NCI-H460 [6])	IC50 at 72 h [8]	Activity (NCI-H460 [10])	Activity (HEK-293T [20])	Activity (HEK-293T [26])	other results
150 nM	≥ 100000 nM	> 100000 nM	Active	530 nm	59622 M⁻¹ cm⁻¹	0.034	Active	Active	230 nM	559 nm	≥ 100000 nM	190 nM	COc1cccc(COC(C)=O)c1OCC1=C2C(C)=C(Br)C(C)=[N+]2[B-](C)(C)n2c(C)c(Br)c(C)c21	Active	≥ 100000 nM	Active	300 nM	Active	Toxic	Toxic	Activity (NCI-H460 [14]): Active; Activity [15]: 91.8%; Drug uptake [16]: Active; IC50 at 72 h [19]: 300 nM; IC50 at 72 h [24]: > 100000 nM; Drug uptake [25]: Active; Drug uptake [27]: Active; Activity [28]: 63%; Activity [29]: 99.9%; Activity [30]: 0.73
170 nM	25000 nM	33000 nM	Active	531 nm	37724 M⁻¹ cm⁻¹	0.043	Active	Active	190 nM	558 nm	18000 nM	160 nM	CC(=O)OCc1ccccc1OCC1=C2C(C)=C(Br)C(C)=[N+]2[B-](C)(C)n2c(C)c(Br)c(C)c21	Active	–	Active	–	Active	Toxic	Toxic	Activity (NCI-H460 [14]): Active; Drug uptake [16]: Active; Drug uptake [25]: Active; Drug uptake [27]: Active
